From ChEMBL document CHEMBL6153155, “Novel Cyclohexyl Amido Acid Antagonists of Lysophosphatidic Acid Type 1 Receptor for the Treatment of Pulmonary Fibrosis” (ACS Med Chem Lett, 2025)
Values after ≈ are worked out from the molar mass of the structure shown.

Experiments:
Mus musculus = test: Inhibition of LPA-stimulated histamine release in male CD1 mouse plasma assessed as effective dose administered as po dose pretreated for 30 mins followed by LPA addition measured after 2 mins by enzyme immunoassay; type: functional; conditions: 32 min
Bile salt export pump = Bile salt export pump (Homo sapiens, UniProt O95342); test: Inhibition of BSEP in cryopreserved sandwich-cultured human hepatocytes by measuring reduction in TCA biliary clearance using taurocholic acid as substrate; type: cell-based, Hepatocyte
Sequence of Bile salt export pump (O95342 whole entry): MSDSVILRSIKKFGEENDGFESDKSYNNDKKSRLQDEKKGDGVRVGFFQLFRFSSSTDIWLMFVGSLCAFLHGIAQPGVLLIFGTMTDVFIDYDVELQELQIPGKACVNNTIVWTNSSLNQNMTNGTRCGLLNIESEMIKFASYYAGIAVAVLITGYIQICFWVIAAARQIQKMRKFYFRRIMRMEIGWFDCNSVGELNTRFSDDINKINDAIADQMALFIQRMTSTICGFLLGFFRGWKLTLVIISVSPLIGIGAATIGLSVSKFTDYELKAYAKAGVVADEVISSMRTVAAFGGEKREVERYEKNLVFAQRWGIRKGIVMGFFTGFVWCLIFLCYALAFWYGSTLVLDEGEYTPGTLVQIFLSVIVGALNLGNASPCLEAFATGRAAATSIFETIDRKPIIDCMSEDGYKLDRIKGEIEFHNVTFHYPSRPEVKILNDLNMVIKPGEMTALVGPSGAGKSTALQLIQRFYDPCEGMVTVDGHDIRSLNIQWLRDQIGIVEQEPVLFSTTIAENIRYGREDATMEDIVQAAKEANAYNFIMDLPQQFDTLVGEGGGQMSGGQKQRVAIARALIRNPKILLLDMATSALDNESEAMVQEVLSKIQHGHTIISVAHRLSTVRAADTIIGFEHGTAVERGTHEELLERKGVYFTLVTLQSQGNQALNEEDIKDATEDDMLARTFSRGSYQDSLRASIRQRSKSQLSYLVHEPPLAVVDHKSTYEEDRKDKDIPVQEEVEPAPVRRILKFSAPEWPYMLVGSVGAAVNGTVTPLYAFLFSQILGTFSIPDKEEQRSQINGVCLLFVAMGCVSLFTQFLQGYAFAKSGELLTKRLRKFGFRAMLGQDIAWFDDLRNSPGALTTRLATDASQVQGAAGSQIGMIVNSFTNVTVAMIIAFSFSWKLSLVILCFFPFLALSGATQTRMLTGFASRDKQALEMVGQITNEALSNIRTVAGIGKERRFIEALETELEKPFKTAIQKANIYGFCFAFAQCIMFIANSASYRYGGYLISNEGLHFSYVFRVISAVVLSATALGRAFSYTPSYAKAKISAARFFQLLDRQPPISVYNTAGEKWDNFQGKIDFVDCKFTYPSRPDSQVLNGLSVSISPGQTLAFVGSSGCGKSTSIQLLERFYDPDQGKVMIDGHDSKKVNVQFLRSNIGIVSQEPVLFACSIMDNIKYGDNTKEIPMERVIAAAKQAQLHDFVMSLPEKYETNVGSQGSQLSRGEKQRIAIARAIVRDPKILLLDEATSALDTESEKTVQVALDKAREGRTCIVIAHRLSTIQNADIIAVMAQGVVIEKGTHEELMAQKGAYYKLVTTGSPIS

[1] = target: ATP-binding cassette sub-family C member 3 (Homo sapiens, UniProt O15438); test: Inhibition of MRP3 (unknown origin) in presence of ATP by membrane vesicular transport assay; type: cell membranes, Membrane vesicle
Sequence of ATP-binding cassette sub-family C member 3 (O15438 whole entry): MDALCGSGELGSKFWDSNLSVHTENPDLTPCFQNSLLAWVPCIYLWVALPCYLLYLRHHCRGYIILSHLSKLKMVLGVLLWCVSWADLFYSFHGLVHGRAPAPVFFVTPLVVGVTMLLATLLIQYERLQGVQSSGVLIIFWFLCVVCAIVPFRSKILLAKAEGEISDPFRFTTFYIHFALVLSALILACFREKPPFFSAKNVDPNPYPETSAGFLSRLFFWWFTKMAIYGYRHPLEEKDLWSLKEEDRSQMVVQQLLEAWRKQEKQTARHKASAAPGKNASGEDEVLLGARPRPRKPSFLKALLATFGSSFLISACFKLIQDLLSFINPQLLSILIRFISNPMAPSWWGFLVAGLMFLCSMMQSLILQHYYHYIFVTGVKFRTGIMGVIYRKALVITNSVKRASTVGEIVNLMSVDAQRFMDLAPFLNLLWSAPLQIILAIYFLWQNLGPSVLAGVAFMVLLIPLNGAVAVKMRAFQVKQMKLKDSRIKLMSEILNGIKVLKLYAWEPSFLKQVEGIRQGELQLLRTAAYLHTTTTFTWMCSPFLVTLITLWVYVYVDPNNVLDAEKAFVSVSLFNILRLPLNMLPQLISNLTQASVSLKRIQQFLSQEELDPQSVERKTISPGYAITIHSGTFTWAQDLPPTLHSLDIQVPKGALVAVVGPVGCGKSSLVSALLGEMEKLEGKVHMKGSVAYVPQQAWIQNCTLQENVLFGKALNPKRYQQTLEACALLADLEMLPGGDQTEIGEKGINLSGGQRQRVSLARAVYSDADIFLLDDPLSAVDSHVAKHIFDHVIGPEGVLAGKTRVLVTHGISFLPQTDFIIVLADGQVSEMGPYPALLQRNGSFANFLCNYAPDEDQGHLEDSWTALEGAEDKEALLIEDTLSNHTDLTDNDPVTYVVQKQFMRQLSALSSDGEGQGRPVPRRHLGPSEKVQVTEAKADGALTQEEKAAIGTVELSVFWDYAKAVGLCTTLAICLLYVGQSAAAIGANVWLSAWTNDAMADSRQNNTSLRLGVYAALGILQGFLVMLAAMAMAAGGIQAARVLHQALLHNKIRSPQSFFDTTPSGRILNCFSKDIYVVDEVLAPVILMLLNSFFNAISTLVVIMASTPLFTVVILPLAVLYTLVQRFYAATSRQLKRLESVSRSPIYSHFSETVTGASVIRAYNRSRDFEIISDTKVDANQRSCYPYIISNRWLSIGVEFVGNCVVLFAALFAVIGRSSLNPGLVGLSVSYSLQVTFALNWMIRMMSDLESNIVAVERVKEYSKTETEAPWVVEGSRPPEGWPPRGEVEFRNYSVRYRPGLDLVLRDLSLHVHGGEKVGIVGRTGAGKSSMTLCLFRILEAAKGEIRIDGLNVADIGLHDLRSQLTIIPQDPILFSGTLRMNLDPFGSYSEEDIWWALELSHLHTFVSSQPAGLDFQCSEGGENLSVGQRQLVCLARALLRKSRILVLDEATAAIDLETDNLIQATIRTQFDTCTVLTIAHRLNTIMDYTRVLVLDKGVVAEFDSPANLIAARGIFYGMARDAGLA

[2] = Half life in female C57BL/6J mouse at 2 mg/kg, iv measured after 24 hrs by UPLC-MS/MS analysis; type: ADME, organism-based; conditions: in vivo
[3] = target: T1, Lysophosphatidic acid receptor 3 (Homo sapiens, UniProt Q9UBY5); test: Antagonist activity at human LPA3 expressed in human HeLa cells incubated for 30 mins by FLIPR-based calcium mobilization assay; type: functional, cell-based
T1 sequence (Q9UBY5 whole entry): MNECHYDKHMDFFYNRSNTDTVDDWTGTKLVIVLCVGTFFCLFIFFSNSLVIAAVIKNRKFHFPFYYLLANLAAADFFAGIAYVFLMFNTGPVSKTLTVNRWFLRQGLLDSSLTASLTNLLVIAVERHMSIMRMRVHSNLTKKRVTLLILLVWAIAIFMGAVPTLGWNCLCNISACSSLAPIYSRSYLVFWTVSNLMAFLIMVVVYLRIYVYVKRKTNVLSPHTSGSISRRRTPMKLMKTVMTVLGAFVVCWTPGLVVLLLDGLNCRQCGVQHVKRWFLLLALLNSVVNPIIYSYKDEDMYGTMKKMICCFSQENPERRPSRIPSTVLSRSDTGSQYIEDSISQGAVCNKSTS

[4] = Volume of distribution at steady state in female C57BL/6J mouse at 2 mg/kg, iv measured after 24 hrs by UPLC-MS/MS analysis; type: ADME, organism-based; conditions: in vivo, read-out: Vdss
[5] = Drug uptake in mouse lung at 30 mg/kg, po measured upto 24 hrs; type: ADME, organism-based; conditions: in vivo
[6] = target: T2, Solute carrier organic anion transporter family member 1B3 (Homo sapiens, UniProt Q9NPD5); test: Inhibition of human OATP1B3 in HEK293 cells; type: cell-based
T2 sequence (Q9NPD5 whole entry): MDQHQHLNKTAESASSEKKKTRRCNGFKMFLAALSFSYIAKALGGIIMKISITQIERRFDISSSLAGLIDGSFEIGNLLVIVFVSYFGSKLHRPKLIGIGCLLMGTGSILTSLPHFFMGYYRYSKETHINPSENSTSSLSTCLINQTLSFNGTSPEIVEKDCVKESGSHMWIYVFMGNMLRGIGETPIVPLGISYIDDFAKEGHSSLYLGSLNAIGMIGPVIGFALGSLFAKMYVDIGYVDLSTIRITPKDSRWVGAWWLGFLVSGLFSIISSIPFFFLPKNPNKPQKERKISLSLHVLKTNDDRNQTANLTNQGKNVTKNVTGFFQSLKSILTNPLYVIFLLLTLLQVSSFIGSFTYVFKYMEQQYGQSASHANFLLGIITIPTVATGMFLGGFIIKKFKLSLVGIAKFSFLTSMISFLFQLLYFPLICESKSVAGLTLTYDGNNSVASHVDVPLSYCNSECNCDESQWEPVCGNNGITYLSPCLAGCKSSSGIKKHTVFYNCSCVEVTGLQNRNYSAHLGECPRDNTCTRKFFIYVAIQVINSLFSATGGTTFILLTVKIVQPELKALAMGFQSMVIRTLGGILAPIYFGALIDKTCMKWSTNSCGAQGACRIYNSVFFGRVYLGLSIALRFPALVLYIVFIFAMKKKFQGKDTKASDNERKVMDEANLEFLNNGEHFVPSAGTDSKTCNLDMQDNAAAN

[7] = target: Phosphatidylcholine translocator ABCB4 (Homo sapiens, UniProt P21439); test: Inhibition of MDR3 in human hepatocytes in the presence of TCA incubated for 3 hrs by LC-MS/MS; type: cell-based, Hepatocyte
Sequence of Phosphatidylcholine translocator ABCB4 (P21439 whole entry): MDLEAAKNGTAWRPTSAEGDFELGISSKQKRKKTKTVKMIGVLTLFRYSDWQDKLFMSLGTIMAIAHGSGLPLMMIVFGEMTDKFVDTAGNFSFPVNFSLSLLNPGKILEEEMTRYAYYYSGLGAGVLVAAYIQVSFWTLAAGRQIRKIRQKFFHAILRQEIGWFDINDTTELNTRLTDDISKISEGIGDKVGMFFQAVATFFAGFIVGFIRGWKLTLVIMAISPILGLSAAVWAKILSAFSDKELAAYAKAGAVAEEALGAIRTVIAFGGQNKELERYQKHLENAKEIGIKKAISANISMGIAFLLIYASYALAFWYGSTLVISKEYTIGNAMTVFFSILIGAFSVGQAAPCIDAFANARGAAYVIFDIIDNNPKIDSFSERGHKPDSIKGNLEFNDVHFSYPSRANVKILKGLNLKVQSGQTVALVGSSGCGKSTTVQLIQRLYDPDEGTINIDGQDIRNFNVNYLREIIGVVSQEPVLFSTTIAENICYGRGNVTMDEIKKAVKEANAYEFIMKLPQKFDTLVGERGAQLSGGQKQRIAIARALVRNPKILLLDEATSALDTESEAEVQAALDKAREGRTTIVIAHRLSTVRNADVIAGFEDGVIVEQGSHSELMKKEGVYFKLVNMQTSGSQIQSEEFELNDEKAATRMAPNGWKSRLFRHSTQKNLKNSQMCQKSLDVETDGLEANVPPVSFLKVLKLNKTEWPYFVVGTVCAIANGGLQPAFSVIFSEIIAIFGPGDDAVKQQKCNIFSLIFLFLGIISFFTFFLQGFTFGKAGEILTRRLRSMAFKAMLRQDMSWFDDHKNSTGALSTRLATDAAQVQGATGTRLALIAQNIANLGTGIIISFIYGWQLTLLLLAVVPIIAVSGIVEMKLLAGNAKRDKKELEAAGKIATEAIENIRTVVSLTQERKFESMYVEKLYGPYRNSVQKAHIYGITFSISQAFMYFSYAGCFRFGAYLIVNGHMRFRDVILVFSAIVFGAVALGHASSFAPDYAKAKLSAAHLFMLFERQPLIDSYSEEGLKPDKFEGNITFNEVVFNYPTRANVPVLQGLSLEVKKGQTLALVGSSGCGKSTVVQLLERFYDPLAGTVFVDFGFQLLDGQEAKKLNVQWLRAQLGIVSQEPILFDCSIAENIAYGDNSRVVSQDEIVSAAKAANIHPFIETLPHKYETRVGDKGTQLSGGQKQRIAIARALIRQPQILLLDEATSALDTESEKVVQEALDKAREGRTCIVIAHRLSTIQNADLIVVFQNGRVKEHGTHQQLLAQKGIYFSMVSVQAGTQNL

[8] = Metabolic stability in human liver microsomes assessed as intrinsic clearance measured per mg of protein at 0.5 uM measured upto 45 mins in presence of NADPH regenerating system by HPLC-MS/MS analysis; type: ADME, Microsome; conditions: read-out: CLH
[9] = Tlast in female C57BL/6J mouse plasma at 30 mg/kg, po measured after 24 hrs by UPLC-MS/MS analysis; type: ADME, organism-based; conditions: in vivo
[10] = Aqueous solubility of the compound at pH 7.4; type: physicochemical; conditions: buffer

IC50 [1]: 25.1 µM
half-life [2]: 110 min
IC50 [3]: 37.2 µM
Vd [4]: 0.16 L/kg
Drug uptake [5]: Active
IC50 [6]: 7.94 µM
IC50 [7]: 251 µM
microsomal CLint at 0.5 µM [8]: 7 µL/min/mg
Tlast [9]: 24 h
solubility [10]: 505 µM (≈ 273 µg/mL)
Compound: Cc1nc(-c2onc(C)c2NC(=O)O[C@H](C)c2ccccc2Cl)ccc1NC(=O)[C@H]1CCCC[C@@H]1C(=O)O
ED50 (Mus musculus): 0.04 mg/kg
IC50 (Bile salt export pump): 39.8 µM
